Earlier results in patent US20030109508A1, “Methods for treating dry eye” (Alcon, Inc., priority 2001, published 2003).

System: human conjunctival epithelial cells
Details: background statement, no data given

CCCCC[C@H](O)/C=C/C=C\C/C=C\C/C=C\CCCC(=O)O [15-HETE]
secretion of mucin-1 (MUC-1): increase the secretion of mucin-1 (MUC-1)
